In general, melting point refers to the temperature, or range, at which the solid turns liquid.

With `COc1cc2c(c(OC)c1)C1CCC3(C)C(O)CCC3C1CC2` (stereo unspecified), the melting point was in the range of 53 to 55 °C.

In the case of `Nc1nc(N)c(N)c(OCC2CCCCC2)n1`, the melting point came to 154 °C.

`Fc1ccc(-c2nc3ccccn3c2-c2ccnc(-c3ccc(CN4CCOCC4)cc3)c2)cc1Cl` showed a melting point of 189 °C.

As to `CCN(CCNC(=O)c1ccc2ccccc2c1)C1CCc2ncsc2C1` (stereo unspecified), the melting point is 110 °C.

`FC(F)(F)c1cccc(-c2cc(C3CCNCC3)nnc2-c2ccncc2)c1` yielded a melting point of 148 to 150 °C.

The molecule `CN(C)c1ccc(C2OC(=O)c3cc(N(C)C)ccc32)c(Cl)c1` (stereo unspecified) returned a melting point of 159 to 160 °C.

With `CCOC(=O)c1ccc(NN2CN(Nc3ccc(C(=O)OCC)cc3)CN(Nc3ccc(C(=O)OCC)cc3)C2)cc1`, the melting point is 218 to 223 °C.

Consider `COC(=O)c1ccccc1Nc1cccc(C(C)NO)c1C` (stereo unspecified), for which the melting point lay within 114 to 116 °C.

As for `CCOC(=O)c1cc(C#N)c(C)nc1NC(C)CC` (stereo unspecified), the melting point lay within 55 to 57 °C.

The molecule `Nc1nc(Cl)c(N)c(NCCO)n1` showed a melting point of 164 to 167 °C.

On to `CCn1c2ccccc2c2cc(C(C#N)=C(C#N)c3cc(C(F)(F)F)cc(C(F)(F)F)c3)ccc21`, for which the melting point was 180 to 182 °C.

For `CNC(=S)n1nc(Nc2ccccc2)nc1N`, the melting point fell in the range of 196 to 198 °C.

As for `CCC(=CC(CSc1nnnn1-c1ccccc1)=NO)C(C)[N+](=O)[O-]` (stereo unspecified), the melting point is 66 to 69 °C.

As for `N#CC1(O)COc2ccccc2OC1`, the melting point fell in the range of 108 to 110 °C.

In turn, `O=C1NC(C(=O)NCCO[N+](=O)[O-])C(Cc2ccccc2)S1` (stereo unspecified) gave a melting point of 123 to 124 °C.

Take `CNC(=O)Nc1ccc(OCC2CCN(c3ccncc3)CC2)cc1`: the melting point fell in the range of 222 to 224 °C.

As to `CN(C)CCC1CCCCN1C(=O)N1c2ccccc2C(=O)Nc2cccnc21` (stereo unspecified), the melting point fell in the range of 188 to 190 °C.

Regarding `CN(C)CCCC1(c2ccc(OC3CCCCO3)cc2)Sc2ccccc2N(C)C1=O` (stereo unspecified), the melting point lay within 98.5 to 101 °C.

For `COC(=O)Nc1nc(Cc2ccccc2)c(C(=O)c2sc(NC(=O)OC)nc2Cc2ccccc2)s1`, the melting point was 189 to 190 °C.

`O=CNNc1ccc(NC(=S)N2CC=CC2)cc1` returned a melting point of 218 to 220 °C.

In the case of `O=c1c(-c2ccc(NS(=O)(=O)c3ccccc3)cc2)coc2cc(O)c(O)cc12`, the melting point lay in the range of 285 to 286 °C.

The molecule `CC(=O)c1ccc(N)c2c1OCCO2` came in with a melting point of 135 to 136 °C.

As to `c1ccc(-c2nc3ccccn3c2-c2ccnc(-c3ccc(N4CCOCC4)cc3)c2)nc1`, the melting point is 145 °C.

Molecule `NC(=O)N(O)CCOCc1ccoc1` registered a melting point of 99 to 101 °C.

Turning to `CC(C)CNC(=O)C(C)NC(=O)C(C)NC(=O)C(C)NC(=O)CCCC(=O)O` (stereo unspecified), the melting point was in the range of 292 to 293 °C.

The molecule `N#Cc1c(N2CCCSCC2)cc[nH]c1=S` gave a melting point of 265 to 270 °C.

Take `C[Si](C)(C)ON1C(=O)CCC1=O`: the melting point was 55 to 57 °C.

`OC1CSC(Oc2cncc(-c3ccc(F)cc3)c2)C(O)C1O` (stereo unspecified) displayed a melting point of 208 to 209 °C.

For the molecule `ON=Cc1cc(Cl)ccc1O`, the melting point fell in the range of 125 to 126 °C.

`O=C(O)CCCCCN(C(=O)c1ccc(Cl)cc1Cl)c1ccccc1-c1ccccc1` registered a melting point of 112 to 113 °C.

As to `Cc1nnc(SCC(=O)C23CC4CC(CC(C4)C2)C3)s1`, the melting point fell in the range of 102 to 105 °C.

As for `Cn1cc(C(F)(F)F)c(C(=O)O)c1Cl`, the melting point was 197 to 198 °C.

`Cc1cc(C2=CCC(c3ccc(OCC4CO4)cc3)CC2)ccc1OCC1CO1` (stereo unspecified) showed a melting point of 117 °C.

In turn, `Cc1c(Cl)nc2nc(SCc3ccccc3)nn2c1Cl` had a melting point of 121 to 123 °C.

For the molecule `Cc1c(C)c2c(c(C)c1NCc1ccccc1)OC(C)(C)C2=O`, the melting point fell in the range of 79 to 83 °C.

Molecule `O=Cc1cccc(OC(=O)C(=O)Oc2cccc(C=O)c2)c1` registered a melting point of 163 to 166 °C.

In the case of `CNC(=O)Nc1cccc(C(=O)Nc2ccccn2)c1`, the melting point was 163 to 164 °C.

In the case of `CC(C)=CC(O)C(Cl)(Cl)Cl` (stereo unspecified), the melting point was found to be 83 °C.

`CC(C)C(=O)N1CCC(c2nc3cc(-c4ccc(C(N)=O)c(F)c4)ccc3o2)CC1` displayed a melting point of 193 to 196 °C.

`O=C(O)CC1(O)CCC(N2CCN(CCNc3ccncc3)CC2)CC1` (stereo unspecified): the melting point fell in the range of 238 to 240 °C.

As to `NC(=O)C[C@H](NC(=O)c1ccccn1)C(=O)O`, the melting point is 171 to 172 °C.

On to `COc1ccc(-c2nc(Cl)cc(N3CCN(C)CC3)n2)cc1`, for which the melting point was 88 to 90 °C.

Turning to `COc1ccc(CCOc2c(-c3ccc(S(C)(=O)=O)cc3)cnn(CC(F)(F)F)c2=O)cc1OC`, the melting point is 133 to 134 °C.

`CCOC(=O)c1ncn2c1CN(C)C(=O)c1c(C#N)cccc1-2`: the melting point was 200 to 201 °C.

In turn, `O=C(NC(O)C(F)(F)F)c1ccc(Cl)cc1` (stereo unspecified) gave a melting point of 140 °C.

`CC(C)CCNCCCN1C(=O)C2(COc3cc4c(cc32)CCO4)c2ccccc21` (stereo unspecified) registered a melting point of 98 to 101 °C.

Consider `CNC(=O)C1CCCN1S(=O)(=O)c1ccc(N2CCC3(CC2)OCCO3)cc1` (stereo unspecified), for which the melting point lay in the range of 137 to 139 °C.

Molecule `CCOC(=O)CN1CCC(CNc2ccc(Cl)cc2C(=O)Nc2ccc(Cl)cn2)CC1` had a melting point of 61 to 63 °C.

The molecule `O=C(Cl)Cc1ccccc1Br` yielded a melting point of 79 °C.

`FC(F)(F)c1ccc(CC[C@H]2CNCCN2)cc1` had a melting point of 135 to 141 °C.

Turning to `CCCCC(CC(=O)Nc1cc(C(N)=O)ccc1C(C)(C)C)c1cc(Cl)c(OCCCOC)cc1OC` (stereo unspecified), the melting point is 176 to 190 °C.

The molecule `O=c1[nH]c2cc(Cl)cc([N+](=O)[O-])c2[nH]c1=O` yielded a melting point of 315 to 317 °C.

As for `COc1cc(C)c(Br)cc1C`, the melting point was determined as 38.4 °C.

Molecule `O=C1C[C@@H]2O[C@@H](CS(=O)(=O)Cc3ccccc3)CN12` (racemic) displayed a melting point of 137 to 145 °C.

The molecule `COCCN(c1cccc2cc(-c3nccs3)[nH]c12)S(=O)(=O)c1cccs1` showed a melting point of 113 to 114 °C.

`CC(=O)OC1CCCCC1n1c(Br)nc2cc(Cl)c(Cl)cc21` (stereo unspecified) came in with a melting point of 167 to 169 °C.

Regarding `Cc1nn(-c2cc(Sc3ccc(O)cc3)c(Cl)cc2Cl)c(=O)n1C(F)F`, the melting point is 228 to 229 °C.

With `O=C(OCC1OC(n2cc(F)c(=O)[nH]c2=O)CC1OCc1ccccc1)c1ccc2c(c1)OCO2` (stereo unspecified), the melting point was 169 to 171 °C.

Consider `CS(=O)(=O)c1ccc(C2=C(c3ccc(F)cc3)CC(CF)(CF)C2)cc1`, for which the melting point was 134 to 135 °C.

Turning to `Cc1c(Cl)c(Cl)nc2c1NC(=O)c1cccnc1N2C1CC1`, the melting point is greater than 290 °C.

`O=C(Nc1ccc2ccc(Cl)nc2n1)c1ccc(C(F)(F)F)cc1`: the melting point was 236 °C.

As for `CCN(CC)C(=O)c1c(OC)cccc1S(N)(=O)=O`, the melting point was in the range of 190 to 194 °C.

Regarding `COc1ccccc1NC(=O)Nc1nc(Nc2ccccc2-c2ccccc2)nc(N2Cc3ccccc3CC2C(=O)O)n1` (stereo unspecified), the melting point is 138 to 145 °C.

`COC(=O)CN1C(=O)c2ccc3ccccc3c2S1(=O)=O` had a melting point of 188 °C.

Consider `CN(Cc1ccco1)c1nccc(Oc2ccc(NC(=O)c3cc(F)cc(N4CCCCC4)c3)c3ccccc23)n1`, for which the melting point is 155 to 156 °C.

`CCOc1c(OC)cc(C(=O)NN=C2CCCC2=Cc2ccccc2)cc1OC` had a melting point of 239 to 240 °C.

The molecule `Cc1noc(C)c1Cn1cc(NC(=O)c2scc(S(C)(=O)=O)c2Cl)cn1` returned a melting point of 202 to 204 °C.

Take `COc1ccc(-n2c(N)nc3ccccc32)cc1-c1ccco1`: the melting point lay in the range of 218 to 221 °C.

On to `C=CCc1cc(OC)c(OC)cc1CC(C#N)=COC`, for which the melting point was 77 to 79 °C.

In turn, `O=c1c2ccccc2sn1-c1ccccc1` had a melting point of 140 to 141 °C.

Molecule `Cc1cc(OCc2ccc(-c3ccc(C(F)(F)F)cc3)nc2C)ccc1SCC(=O)O` displayed a melting point of 168 to 169 °C.

In the case of `COC(=O)Cn1c(C(=O)NC(N)=S)c(C)c2cc(C)ccc21`, the melting point was in the range of 210 to 212 °C.

Take `CN=C1N(C)C(=O)CN1c1ccccc1`: the melting point lay in the range of 116 to 118 °C.

On to `CCOC(C)=NOc1nc(C(F)(F)F)cc(=O)n1-c1cc(Oc2ccccc2[N+](=O)[O-])c(Cl)cc1F`, for which the melting point is 152 to 155 °C.

In turn, `CC(=O)NNc1ccnc2c(NC(=O)c3c(Cl)cccc3Cl)cc(F)cc12` came in with a melting point of 250 to 254 °C.

Molecule `Cc1ccc(S(=O)(=O)n2cc(C=O)c3ccc(C(=O)Nc4c(Cl)cncc4Cl)cc32)cc1` had a melting point of 245 °C.

In the case of `CCCCCCCCCCCCCCCCCC(=O)Oc1cc(C(C)(C)C)c(O)c(C(C)(C)C)c1`, the melting point is 35 to 39 °C.

On to `CN(C1CC(C)(C)NC(C)(C)C1)C1CC(C)(C)NC(C)(C)C1`, for which the melting point is 51 to 53 °C.

Molecule `Cn1nc(-c2cc([N+](=O)[O-])c(Cl)cc2F)c(Cl)c1S(C)=O` (stereo unspecified) had a melting point of 151 °C.

Consider `CNC(=O)c1cc2c(Oc3ccc(/C=C/C(=O)NCC(O)CO)cc3)cncc2s1` (stereo unspecified), for which the melting point lay in the range of 225 to 226 °C.

`Clc1cccc(Oc2ccc(OCc3cc(C4CC4)no3)cc2)n1` gave a melting point of 128 to 130 °C.

In turn, `CCCOc1ccc2c(c1)C(=O)C=C2c1ccc2c(c1)OCO2` yielded a melting point of 90 to 93 °C.

Molecule `CC(C)NC(=O)N1CC(Oc2cccc(C(F)(F)F)c2)C1` returned a melting point of 150 to 152 °C.

In the case of `O=C(COc1ccccc1)N[C@H]1C(=O)N[C@H]1C(=O)O` (relative stereo), the melting point fell in the range of 150 to 151 °C.

`O=c1n(C(c2ccccc2)(c2ccccc2)c2ccccc2)nc2ccc(Cl)nn12` yielded a melting point of 246 to 247 °C.

For the molecule `CCOc1cc2c(c3c1[nH]c1ccc(O)cc13)C(=O)N(CCN(C)C)C2=O`, the melting point was in the range of 260 to 261 °C.

Consider `CNc1nc(=O)c2ccccc2n1Cc1ccc(F)cc1`, for which the melting point lay in the range of 251 to 255 °C.

`O=C1OC(=O)C(F)=C1F` showed a melting point of 170 to 173 °C.

In turn, `Fc1ccc(C(=C2SCSCS2)c2ccc(F)cc2)cc1` came in with a melting point of 153 to 154 °C.

Molecule `NC(=O)c1cc([N+](=O)[O-])ccc1I` displayed a melting point of 230 to 233 °C.

In the case of `COc1ccc(C(=O)NCc2ccc(CNC(=O)c3ccc(OC)cc3)cc2)cc1`, the melting point lay within 249 to 250 °C.

For the origin of these results see a melting point compilation (Tetko et al.; mined from patent text by program, amines drawn as free bases though some values may be those of a salt).
